From ChEMBL document CHEMBL1944551, “An integrated computational workflow for efficient and quantitative modeling of renin inhibitors” (Bioorg Med Chem, 2012)

assay: physchem; details: octanol/buffer

| SMILES | logP |
| --- | --- |
| CC(C)(C)OCC(=O)NCCc1ccc(Cl)c(CN(C(=O)[C@H]2CNCC(=O)N2c2ccc(COC(=O)c3ccccc3)cc2)C2CC2)c1 | 5.28 |
| O=C([C@H]1CNCC(=O)N1c1ccc(CCCOc2cccc(Cl)c2)cc1)N(Cc1cc(CNCCF)ccc1Cl)C1CC1 | 5.84 |
| Cc1cc(Cl)c(OCCOc2ccc(N3C(=O)CNC[C@@H]3C(=O)N(C)CCc3ccccc3)cn2)c(Cl)c1 | 3.85 |
| CC(=O)NCCc1ccc(Cl)c(CN(C(=O)[C@H]2CNCC(=O)N2c2ccc(OCCOc3c(Cl)cc(C)cc3Cl)nc2)C2CC2)c1 | 4.55 |
| Cc1cc(Cl)c(OCCOc2ccc(N3C(=O)CNC[C@@H]3C(=O)N(Cc3ccccc3Cl)C3CC3)cc2)c(Cl)c1 | 5.83 |
| CNC(=O)Cc1ccc(Cl)c(CN(C(=O)[C@H]2CNCC(=O)N2c2ccc(CCCOc3c(F)ccc(F)c3F)cc2)C2CC2)c1 | 5.15 |
| CCNCc1ccc(Cl)c(CN(C(=O)[C@H]2CNCC(=O)N2c2ccc(CCCOc3cccc(Cl)c3)cc2)C2CC2)c1 | 6.06 |
| CNC(=O)OCCc1ccc(Cl)c(CN(C(=O)[C@H]2CNCC(=O)N2c2ccc(CCCOc3cccc(Cl)c3)cc2)C2CC2)c1 | 5.74 |
| O=C(OCc1ccc(N2C(=O)CNC[C@@H]2C(=O)N(Cc2cc(CCNCC(F)F)ccc2Cl)C2CC2)cc1)c1ccccc1 | 5.05 |
| CNC(=O)Cc1ccc(Cl)c(CN(C(=O)[C@H]2CNCC(=O)N2c2ccc(OCCOc3c(Cl)cc(C)cc3Cl)cc2)C2CC2)c1 | 5.26 |
| O=C(OCc1ccc(N2C(=O)CNC[C@@H]2C(=O)N(Cc2cc(CNC(=O)C3CC3)ccc2Cl)C2CC2)cc1)c1ccccc1 | 4.54 |
| CNC(=O)OCc1ccc(Cl)c(CN(C(=O)[C@H]2CNCC(=O)N2c2ccc(OCCOc3c(Cl)cc(C)cc3Cl)nc2)C2CC2)c1 | 4.75 |
| CCNCCc1ccc(Cl)c(CN(C(=O)[C@H]2CNCC(=O)N2c2ccc(CCCOc3c(F)ccc(F)c3F)cc2)C2CC2)c1 | 5.97 |
| COCCc1ccc(Cl)c(CN(C(=O)[C@H]2CNCC(=O)N2c2ccc(CCCOc3cccc(Cl)c3)cc2)C2CC2)c1 | 6.12 |
| COCCCc1ccc(Cl)c(CN(C(=O)[C@H]2CNCC(=O)N2c2ccc(COC(=O)c3ccccc3)cc2)C2CC2)c1 | 5.39 |
| CCC(=O)NCc1ccc(Cl)c(CN(C(=O)[C@H]2CNCC(=O)N2c2ccc(COC(=O)c3ccccc3)cc2)C2CC2)c1 | 4.67 |
| Cc1cc(Cl)c(OCCOc2ccc(N3C(=O)CNC[C@@H]3C(=O)N(Cc3ccccc3Cl)C3CC3)cn2)c(Cl)c1 | 5 |
| O=C(NCc1ccccc1Cl)[C@H]1CNCC(=O)N1c1ccc(OCCCOCc2ccccc2)cc1 | 4.26 |
| CC(=O)NCc1ccc(Cl)c(CN(C(=O)[C@H]2CNCC(=O)N2c2ccc(CCCOc3c(F)ccc(F)c3F)cc2)C2CC2)c1 | 5.19 |
| O=C(OCc1ccc(N2C(=O)CNC[C@@H]2C(=O)N(Cc2cc(CNCCF)ccc2Cl)C2CC2)cc1)c1ccccc1 | 4.66 |
| COCCCc1cc(CN(C(=O)[C@H]2CNCC(=O)N2c2ccc(COC(=O)c3ccccc3)cc2)C2CC2)c(Cl)cn1 | 4.11 |
| COCCCc1cc(CN(C(=O)[C@H]2CNCC(=O)N2c2ccc(OCCOc3c(Cl)cc(C)cc3Cl)nc2)C2CC2)c(Cl)cn1 | 4.39 |
| CCNCc1ccc(Cl)c(CN(C(=O)[C@H]2CNCC(=O)N2c2ccc(OCCOc3c(Cl)cc(C)cc3Cl)nc2)C2CC2)c1 | 5.16 |
| O=C(NCc1ccccc1)[C@H]1CNCC(=O)N1c1ccc(CCCOc2cccc(Cl)c2)cc1 | 4.46 |
| CNCc1ccc(Cl)c(CN(C(=O)[C@H]2CNCC(=O)N2c2ccc(OCCOc3c(Cl)cc(C)cc3Cl)nc2)C2CC2)c1 | 4.82 |

| SMILES | logP |
| --- | --- |
| O=C(OCc1ccc(N2C(=O)CNC[C@@H]2C(=O)NCc2ccccc2)cc1)c1ccccc1 | 3.29 |
| CCNC(=O)Cc1ccc(Cl)c(CN(C(=O)[C@H]2CNCC(=O)N2c2ccc(OCCOc3c(Cl)cc(C)cc3Cl)nc2)C2CC2)c1 | 4.77 |
| COCCCc1ccc(Cl)c(CN(C(=O)[C@H]2CNCC(=O)N2c2ccc(OCCOc3c(Cl)cc(C)cc3Cl)nc2)C2CC2)c1 | 5.66 |
| COc1c(CN(C(=O)[C@H]2CNCC(=O)N2c2ccc(COC(=O)c3ccccc3)cc2)C2CC2)ccnc1C | 3.12 |
| COc1cccc(CN(C(=O)[C@H]2CNCC(=O)N2c2ccc(CCCOc3cccc(Cl)c3)cc2)C2CC2)c1C | 5.56 |
| COc1ccccc1COCCCOc1ccc(N2C(=O)CNC[C@@H]2C(=O)N(C)Cc2ccccc2)cc1 | 3.82 |
| COC(=O)NCCc1ccc(Cl)c(CN(C(=O)[C@H]2CNCC(=O)N2c2ccc(COC(=O)c3ccccc3)cc2)C2CC2)c1 | 4.57 |
| CNC(=O)CCc1ccc(Cl)c(CN(C(=O)[C@H]2CNCC(=O)N2c2ccc(CCCOc3cccc(Cl)c3)cc2)C2CC2)c1 | 5.42 |
| O=C(NCc1ccccc1)[C@H]1CNCC(=O)N1c1ccc(OCCCOCc2ccccc2)cc1 | 3.67 |
| CC(=O)NCCc1ccc(Cl)c(CN(C(=O)[C@H]2CNCC(=O)N2c2ccc(CCCOc3c(F)ccc(F)c3F)cc2)C2CC2)c1 | 5.28 |
| Cc1cc(Cl)c(OCCOc2ccc(N3C(=O)CNC[C@@H]3C(=O)N(Cc3cc(CCNCC(F)F)ccc3Cl)C3CC3)cn2)c(Cl)c1 | 5.33 |
| Cc1cc(Cl)c(OCCOc2ccc(N3C(=O)CNC[C@@H]3C(=O)N(Cc3cc(CCNC(=O)COC(C)(C)C)ccc3Cl)C3CC3)cc2)c(Cl)c1 | 6.38 |
| COCCCc1cc(CN(C(=O)[C@H]2CNCC(=O)N2c2ccc(CCCOc3cccc(Cl)c3)cc2)C2CC2)c(Cl)c[n+]1[O-] | 5.51 |
| CCC(=O)NCc1ccc(Cl)c(CN(C(=O)[C@H]2CNCC(=O)N2c2ccc(OCCOc3c(Cl)cc(C)cc3Cl)cc2)C2CC2)c1 | 5.77 |
| CCNCCc1ccc(Cl)c(CN(C(=O)[C@H]2CNCC(=O)N2c2ccc(CCCOc3cccc(Cl)c3)cc2)C2CC2)c1 | 6.15 |
| COCCCc1ccc(Cl)c(CN(C(=O)[C@H]2CNCC(=O)N2c2ccc(CCCOc3cccc(Cl)c3)cc2)C2CC2)c1 | 6.56 |
| CNCCc1ccc(Cl)c(CN(C(=O)[C@H]2CNCC(=O)N2c2ccc(OCCOc3c(Cl)cc(C)cc3Cl)nc2)C2CC2)c1 | 4.91 |
| O=C(OCc1ccc(N2C(=O)CNC[C@@H]2C(=O)N(Cc2cccc(Cl)c2)C2CC2)cc1)c1ccccc1 | 4.77 |
| CN(Cc1ccccc1)C(=O)[C@H]1CNCC(=O)N1c1ccc(COC(=O)c2ccccc2)cc1 | 3.49 |
| CNCc1ccc(Cl)c(CN(C(=O)[C@H]2CNCC(=O)N2c2ccc(CCCOc3cccc(Cl)c3)cc2)C2CC2)c1 | 5.72 |
| CN(Cc1ccccc1)C(=O)[C@H]1CNCC(=O)N1c1ccc(CCCOc2c(F)ccc(F)c2F)cc1 | 4.49 |
| COC(=O)NCCc1ccc(Cl)c(CN(C(=O)[C@H]2CNCC(=O)N2c2ccc(CCCOc3c(F)ccc(F)c3F)cc2)C2CC2)c1 | 5.56 |
| COc1ccccc1COCCCOc1ccc(N2C(=O)CNC[C@@H]2C(=O)N(C)Cc2ccccc2Cl)cc1 | 4.41 |
| O=C([C@H]1CNCC(=O)N1c1ccc(CCCOc2c(F)ccc(F)c2F)cc1)N(Cc1cccc(Cl)c1Cl)C1CC1 | 6.32 |

Further lines, results first:

| logP | SMILES |
| --- | --- |
| 3.6 | COc1ccccc1COCCCOc1ncc(N2C(=O)CNC[C@@H]2C(=O)N(Cc2cc(CCNC(=O)COC(C)(C)C)ccc2Cl)C2CC2)cn1 |
| 5.04 | CCC(=O)NCc1ccc(Cl)c(CN(C(=O)[C@H]2CNCC(=O)N2c2ccc(OCCCOCc3ccccc3)cc2)C2CC2)c1 |
| 5.72 | COCCCc1ccc(Cl)c(CN(C(=O)[C@H]2CNCC(=O)N2c2ccc(OCCCOCc3ccccc3OC)cc2)C2CC2)c1 |
| 4.92 | O=C(NCc1ccc(Cl)c(CN(C(=O)[C@H]2CNCC(=O)N2c2ccc(OCCCOCc3ccccc3)cc2)C2CC2)c1)C1CC1 |
| 1.8 | COc1ccccc1COCCCOc1ncc(N2C(=O)CNC[C@@H]2C(=O)N(C)Cc2ccccc2)cn1 |
| 2.98 | COc1ccccc1COCCCOc1ncc(N2C(=O)CNC[C@@H]2C(=O)N(Cc2cc(CNCCF)ccc2Cl)C2CC2)cn1 |
| 4.48 | CNC(=O)Cc1ccc(Cl)c(CN(C(=O)[C@H]2CNCC(=O)N2c2ccc(OCCCOCc3ccccc3OC)cc2)C2CC2)c1 |
| 4.76 | COc1cccc(CN(C(=O)[C@H]2CNCC(=O)N2c2ccc(OCCCOCc3ccccc3)cc2)C2CC2)c1C |
| 2.47 | CNC(=O)Cc1ccc(Cl)c(CN(C(=O)[C@H]2CNCC(=O)N2c2cnc(OCCCOCc3ccccc3OC)nc2)C2CC2)c1 |
| 5.06 | COc1ccccc1COCCCOc1ccc(N2C(=O)CNC[C@@H]2C(=O)N(Cc2ccc(Cl)cc2)C2CC2)cc1 |
| 4.85 | CNC(=O)OCc1ccc(Cl)c(CN(C(=O)[C@H]2CNCC(=O)N2c2ccc(OCCCOCc3ccccc3)cc2)C2CC2)c1 |
| 3.05 | COc1ccccc1COCCCOc1ncc(N2C(=O)CNC[C@@H]2C(=O)N(Cc2ccccc2Cl)C2CC2)cn1 |
| 3.45 | COc1ccccc1COCCCOc1ccc(N2C(=O)CNC[C@@H]2C(=O)N(Cc2ccnc(C)c2OC)C2CC2)cc1 |
| 2.88 | COC(=O)NCCc1ccc(Cl)c(CN(C(=O)[C@H]2CNCC(=O)N2c2cnc(OCCCOCc3ccccc3OC)nc2)C2CC2)c1 |
| 2.95 | CNCCc1ccc(Cl)c(CN(C(=O)[C@H]2CNCC(=O)N2c2cnc(OCCCOCc3ccccc3OC)nc2)C2CC2)c1 |
| 2.87 | CNCc1ccc(Cl)c(CN(C(=O)[C@@H]2CNCC(=O)N2c2cnc(OCCCOCc3ccccc3OC)nc2)C2CC2)c1 |
| 5.98 | O=C(Cc1ccc(Cl)c(CN(C(=O)[C@H]2CNCC(=O)N2c2ccc(CCCOc3cccc(Cl)c3)cc2)C2CC2)c1)NC1CC1 |
| 4.99 | COc1ccccc1COCCCOc1ccc(N2C(=O)CNC[C@@H]2C(=O)N(Cc2cc(CNCCF)ccc2Cl)C2CC2)cc1 |
| 2.4 | COc1ccccc1COCCCOc1ncc(N2C(=O)CNC[C@@H]2C(=O)N(C)Cc2ccccc2Cl)cn1 |
| 4.9 | COC(=O)NCCc1ccc(Cl)c(CN(C(=O)[C@H]2CNCC(=O)N2c2ccc(OCCCOCc3ccccc3OC)cc2)C2CC2)c1 |
| 3.52 | COc1ccccc1COCCCOc1ncc(N2C(=O)CNC[C@@H]2C(=O)N(Cc2cc(CNC3CC3)ccc2Cl)C2CC2)cn1 |
| 2.88 | CNC(=O)OCCc1ccc(Cl)c(CN(C(=O)[C@H]2CNCC(=O)N2c2cnc(OCCCOCc3ccccc3OC)nc2)C2CC2)c1 |
| 5.2 | O=C(OCc1ccc(N2C(=O)CNC[C@@H]2C(=O)N(Cc2cc(CNC3CC3)ccc2Cl)C2CC2)cc1)c1ccccc1 |
| 5.18 | O=C(Cc1ccc(Cl)c(CN(C(=O)[C@H]2CNCC(=O)N2c2ccc(OCCCOCc3ccccc3)cc2)C2CC2)c1)NC1CC1 |
| 2.51 | COc1ccccc1COCCCOc1ncc(N2C(=O)CNC[C@@H]2C(=O)N(Cc2cc(CNC(C)=O)ccc2Cl)C2CC2)cn1 |
| 5.01 | CNCCc1ccc(Cl)c(CN(C(=O)[C@H]2CNCC(=O)N2c2ccc(OCCCOCc3ccccc3)cc2)C2CC2)c1 |
